Test results taken from PMC7031696 (Cell chemical biology, 2019).
Read-outs that look alike come from different tables or passages of the source.

Tests used:
[1] = system: Plasmodium falciparum 3D7-A10 parasites; assay: Stage specificity assay (8-h exposure of synchronized stages, IC50^8h); assay type: cell-based; details: for IC50: Plasmodium falciparum
[2] = system: asynchronous 3D7-A10 parasite cultures; assay: Standard 72-h exposure asexual blood stage susceptibility assay (IC50^72h); assay type: cell-based, Plasmodium falciparum; details: Plasmodium falciparum, 3D7, 72 h, read-out: Overall (72hr assay) Mean IC50 (IC50^72h)
[3] = system: 3D7-MR4 trophozoite parasite-infected RBCs; assay: Metabolomic profiling (hydrophilic metabolite changes, UHPLC-MS); assay type: cell-based, Plasmodium falciparum

**Q.** What does the source list for `FC(F)(F)c1cccc(Nc2nc3ccccc3nc2Nc2cccc(C(F)(F)F)c2)c1` [MMV665794]?
**A.** Ratio lowest IC50 8hr/IC50 72hr ([1]; 3D7-A10): 1.8; IC50 ([1]; 3D7, read-out: Early rings Mean IC50 (IC50^8h), 8-h exposure 0–8 hr, 3D7-A10, survival at 60 h): 369 nM; IC50 ([1]; 3D7, read-out: Early trophozoites Mean IC50 (IC50^8h), 8-h exposure 16–24 hr, 3D7-A10, survival at 60 h): 210 nM; IC50 ([1]; 3D7, read-out: Late rings Mean IC50 (IC50^8h), 8-h exposure 8–16 hr, 3D7-A10, survival at 60 h): 590 nM; IC50 ([1]; 3D7, read-out: Late trophozoites Mean IC50 (IC50^8h), 8-h exposure 24–32 hr, 3D7-A10, survival at 60 h): 165 nM; IC50 ([1]; 3D7, read-out: Schizonts Mean IC50 (IC50^8h), 8-h exposure 32–40 hr, 3D7-A10, survival at 60 h): 203 nM; IC50 [2]: 91.3 nM; Log2(fold changes) 3-phosphoglycerate ([3]; metabolite 3-phosphoglycerate, log2 fold change): 0.1475; Log2(fold changes) 4-Pyridoxic acid ([3]; metabolite 4-Pyridoxic acid, log2 fold change): 0.1397; Log2(fold changes) 4-aminobutyrate ([3]; metabolite 4-aminobutyrate, log2 fold change): -0.1443; Log2(fold changes) 4-phosphopantetheine ([3]; metabolite 4-phosphopantetheine, log2 fold change): 0.0000; Log2(fold changes) 4-phosphopantothenate ([3]; metabolite 4-phosphopantothenate, log2 fold change): 0.0000; Log2(fold changes) 5-aminopentanoic acid ([3]; metabolite 5-aminopentanoic acid, log2 fold change): 0.0000; Log2(fold changes) 5-methyl-THF ([3]; metabolite 5-methyl-THF, log2 fold change): 0.0000; Log2(fold changes) 5-phosphoribosyl-1-pyrophosphate ([3]; metabolite 5-phosphoribosyl-1-pyrophosphate, log2 fold change): 0.0000; Log2(fold changes) 6-phospho-D-gluconate ([3]; metabolite 6-phospho-D-gluconate, log2 fold change): 0.0648; Log2(fold change) HVDD ([3]; metabolite HVDD): 0.0000; Log2(fold change) Hydroxyisocaproic acid ([3]; metabolite Hydroxyisocaproic acid): 0.0000; Log2(fold change) IDP ([3]; metabolite IDP): 0.0000; Log2(fold change) IMP ([3]; metabolite IMP): -0.1724; Log2(fold change) Inositol ([3]; metabolite Inositol): 0.4519; Log2(fold change) Isopentyl-PP ([3]; metabolite Isopentyl-PP): 0.0000; Log2(fold change) L-arginino-succinate ([3]; metabolite L-arginino-succinate): 0.0000; Log2(fold change) LD ([3]; metabolite LD): 0.2876; Log2(fold change) Myristoyl/tetradecanoyl-CoA ([3]; metabolite Myristoyl/tetradecanoyl-CoA): 0.0000; Log2(fold change) N-Acetyl-L-alanine ([3]; metabolite N-Acetyl-L-alanine): -0.5892; Log2(fold change) N-acetyl-L-ornithine ([3]; metabolite N-acetyl-L-ornithine): -0.6613; Log2(fold change) N-acetyl-glucosamine-1/6-phosphate ([3]; metabolite N-acetyl-glucosamine-1/6-phosphate): 0.0457; Log2(fold change) N-acetyl-glutamate ([3]; metabolite N-acetyl-glutamate): 0.0432; Log2(fold change) N-acetyl-glutamine ([3]; metabolite N-acetyl-glutamine): -0.6444; Log2(fold change) N-carbamoyl-L-aspartate ([3]; metabolite N-carbamoyl-L-aspartate): 0.7842; Log2(fold change) NAD+ ([3]; metabolite NAD+): -0.0023; Log2(fold change) NADH ([3]; metabolite NADH): 0.0000; Log2(fold change) NADP+ ([3]; metabolite NADP+): 0.2420; Log2(fold change) NADPH ([3]; metabolite NADPH): 0.2872; Log2(fold change) O-acetyl-L-serine ([3]; metabolite O-acetyl-L-serine): 0.0000; Log2(fold change) Octoluse 8/1P ([3]; metabolite Octoluse 8/1P): -0.0525; Log2(fold change) Octoluse Bisphosphate ([3]; metabolite Octoluse Bisphosphate): -0.0227; Log2(fold change) PD ([3]; metabolite PD): -1.6060; Log2(fold change) PE ([3]; metabolite PE): -1.2530; Log2(fold change) PEE ([3]; metabolite PEE): -0.7348; Log2(fold change) PEEK ([3]; metabolite PEEK): -2.1636; Log2(fold change) PVNF ([3]; metabolite PVNF): -0.9738; Log2(fold change) Pyroglutamic acid ([3]; metabolite Pyroglutamic acid): -0.1549; Log2(fold change) Pyrophosphate ([3]; metabolite Pyrophosphate): 0.0000; Log2(fold change) Ribose-5-phosphate ([3]; metabolite Ribose-5-phosphate): 0.0000; Log2(fold change) S-adenosyl-L-homocysteine ([3]; metabolite S-adenosyl-L-homocysteine): -0.1116; Log2(fold change) S-adenosyl-L-methioninamine ([3]; metabolite S-adenosyl-L-methioninamine): 0.0000; Log2(fold change) S-adenosyl-L-methionine ([3]; metabolite S-adenosyl-L-methionine): 0.0000; Log2(fold change) S-methyl-5'-thioadenosine ([3]; metabolite S-methyl-5'-thioadenosine): -0.0770; Log2(fold change) SD ([3]; metabolite SD): -0.6103; Log2(fold change) SDL ([3]; metabolite SDL): 0.0000; Log2(fold change) SID ([3]; metabolite SID): 0.0000; Log2(fold change) Sedoheptulose bisphosphate ([3]; metabolite Sedoheptulose bisphosphate): 0.0000; Log2(fold change) Thiamine pyrophosphate ([3]; metabolite Thiamine pyrophosphate): 0.0000; Log2(fold changes) UDP-D-glucose ([3]; metabolite UDP-D-glucose, log2 fold change): 0.0057; Log2(fold changes) UDP-D-glucuronate ([3]; metabolite UDP-D-glucuronate, log2 fold change): 0.0333; Log2(fold changes) UDP-N-acetyl-glucosamine ([3]; metabolite UDP-N-acetyl-glucosamine, log2 fold change): -0.0841; Log2(fold changes) UDP ([3]; metabolite UDP, log2 fold change): -0.2966; Log2(fold changes) UMP ([3]; metabolite UMP, log2 fold change): -0.1315; Log2(fold changes) UTP ([3]; metabolite UTP, log2 fold change): -0.1979; Log2(fold change) hydroxyphenylpyruvate ([3]; metabolite hydroxyphenylpyruvate): 0.0000; Log2(fold change) hydroxyproline/Aminolevulinate ([3]; metabolite hydroxyproline/Aminolevulinate): 0.0000; Log2(fold change) hypoxanthine ([3]; metabolite hypoxanthine): 0.0564; Log2(fold change) indole ([3]; metabolite indole): 0.0000; Log2(fold change) inosine ([3]; metabolite inosine): -0.1857; Log2(fold change) isoleucine ([3]; metabolite isoleucine): 0.0000; Log2(fold change) lactate ([3]; metabolite lactate): -0.1258; Log2(fold change) leucine ([3]; metabolite leucine): 0.0000; Log2(fold change) lysine ([3]; metabolite lysine): -1.0057; Log2(fold change) malate ([3]; metabolite malate): -0.5114; Log2(fold change) maleic acid ([3]; metabolite maleic acid): 0.0000; Log2(fold change) methionine ([3]; metabolite methionine): 0.1032; Log2(fold change) myo-inositol ([3]; metabolite myo-inositol): -0.1088; Log2(fold change) nicotinamide mononucleotide ([3]; metabolite nicotinamide mononucleotide): 0.0000; Log2(fold change) nicotinate ([3]; metabolite nicotinate): -0.0014; Log2(fold change) ornithine ([3]; metabolite ornithine): -0.5221; Log2(fold change) orotate ([3]; metabolite orotate): -0.1200; Log2(fold change) orotidine-5'-phosphate ([3]; metabolite orotidine-5'-phosphate): -0.1502; Log2(fold change) oxaloacetate ([3]; metabolite oxaloacetate): 0.0000; Log2(fold change) p-aminobenzoate ([3]; metabolite p-aminobenzoate): 0.0000; Log2(fold change) p-hydroxybenzoate ([3]; metabolite p-hydroxybenzoate): 0.0000; Log2(fold change) pantothenate ([3]; metabolite pantothenate): -0.3232; Log2(fold change) phenylalanine ([3]; metabolite phenylalanine): -0.3048; Log2(fold change) phenylpyruvate ([3]; metabolite phenylpyruvate): 0.0000; Log2(fold change) phosphoenolpyruvate ([3]; metabolite phosphoenolpyruvate): 0.2889; Log2(fold change) prephenate ([3]; metabolite prephenate): 0.0000; Log2(fold change) proline ([3]; metabolite proline): -0.1760; Log2(fold change) pyridoxine ([3]; metabolite pyridoxine): -0.0343; Log2(fold change) pyruvate ([3]; metabolite pyruvate): -0.4249; Log2(fold change) riboflavin ([3]; metabolite riboflavin): 0.0000; Log2(fold change) ribose ([3]; metabolite ribose): 0.0000; Log2(fold change) ribose-phosphate ([3]; metabolite ribose-phosphate): -0.1845; Log2(fold change) ribulose-5-phosphate ([3]; metabolite ribulose-5-phosphate): 0.0000; Log2(fold change) serine ([3]; metabolite serine): -0.0943; Log2(fold change) sn-glycerol-3-phosphate ([3]; metabolite sn-glycerol-3-phosphate): 0.1547; Log2(fold change) succinate/Methylmalonic acid ([3]; metabolite succinate/Methylmalonic acid): 0.2773; Log2(fold change) succinyl-CoA/methylmalonyl-CoA ([3]; metabolite succinyl-CoA/methylmalonyl-CoA): 0.0000; Log2(fold change) taurine ([3]; metabolite taurine): 0.4682; Log2(fold change) thiamine ([3]; metabolite thiamine): -0.4163; Log2(fold change) threonine/homoserine ([3]; metabolite threonine/homoserine): -0.3057; Log2(fold change) thymidine ([3]; metabolite thymidine): 0.0000; Log2(fold changes) thymine ([3]; metabolite thymine, log2 fold change): 0.0000; Log2(fold changes) trehalose-6-Phosphate ([3]; metabolite trehalose-6-Phosphate, log2 fold change): 0.0000; Log2(fold changes) tryptophan ([3]; metabolite tryptophan, log2 fold change): -0.2265; Log2(fold changes) tyrosine ([3]; metabolite tyrosine, log2 fold change): -0.1308; Log2(fold changes) uridine ([3]; metabolite uridine, log2 fold change): -0.0071
